# Source: ChEMBL document CHEMBL4118101 (Bioorg Med Chem, 2018)
# Activity calls are given as the source filed them. The rule behind the calls is not given here.
# Key:
# Candida albicans [1] = experiment: Antifungal activity against fluconazole/ITC-resistant Candida albicans ATCC MYA-1003 measured after 48 hrs by CLSI M27-A3 protocol based method; format: functional
# [2] = Cytotoxicity against HEK293 cells assessed as cell survival at 3.9 ug/ml after 24 hrs by resazurin based assay relative to control; settings: human, read-out: Survival
# Cryptococcus neoformans [3] = experiment: Antifungal activity against Cryptococcus neoformans isolate CN3 measured after 48 hrs by CLSI M27-A3 protocol based method; format: functional
# Candida albicans [4] = settings: ATCC 10231, 0.975 ug/ml
# [5] = (§1) Hemolytic activity in mouse RBC at 62.5 ug/ml after 1 hr relative to control; format: ADME, cell-based, Erythrocyte; settings: mouse red blood cells (erythrocytes), read-out: Activity
# Candida parapsilosis [6] = experiment: Antifungal activity against Candida parapsilosis isolate CP3 measured after 48 hrs by CLSI M27-A3 protocol based method; format: functional
# Nakaseomyces glabratus [7] = experiment: Antifungal activity against Candida glabrata isolate CG1 measured after 48 hrs by CLSI M27-A3 protocol based method; format: functional
# Candida albicans [8] = experiment: Antifungal activity against fluconazole/ITC-resistant Candida albicans ATCC 90819 measured after 48 hrs by CLSI M27-A3 protocol based method; format: functional
# Candida albicans [9] = experiment: Antifungal activity against fluconazole/ITC-resistant Candida albicans ATCC MYA-1237 measured after 48 hrs by CLSI M27-A3 protocol based method; format: functional
# Cryptococcus neoformans [10] = experiment: Antifungal activity against Cryptococcus neoformans isolate CN1 measured after 48 hrs by CLSI M27-A3 protocol based method; format: functional; settings: isolate CN1, 48 h
# Candida albicans [11] = experiment: Antifungal activity against Candida albicans ATCC 10231 measured after 48 hrs by CLSI M27-A3 protocol based method; format: functional; settings: ATCC 10231, 48 h
# Cryptococcus neoformans [12] = experiment: Antifungal activity against Cryptococcus neoformans isolate CN2 measured after 48 hrs by CLSI M27-A3 protocol based method; format: functional
# [13] = Hemolytic activity in mouse RBC at 3.9 ug/ml after 1 hr relative to control; format: ADME, cell-based, Erythrocyte; settings: mouse red blood cells (erythrocytes), read-out: Activity
# Aspergillus flavus = experiment: Antifungal activity against Aspergillus flavus ATCC MYA-3631 measured after 48 hrs by CLSI M38-A2 protocol based method; format: functional; settings: ATCC MYA-3631, 48 h
# Candida albicans [14] = experiment: Antifungal activity against fluconazole/ITC-susceptible Candida albicans ATCC MYA-2310 measured after 48 hrs by CLSI M27-A3 protocol based method; format: functional
# [15] = Hemolytic activity in mouse RBC at 7.8 ug/ml after 1 hr relative to control; format: ADME, cell-based, Erythrocyte; settings: mouse red blood cells (erythrocytes), read-out: Activity
# Candida albicans [16] = experiment: Antifungal activity against fluconazole/ITC-susceptible Candida albicans ATCC MYA-2876 measured after 48 hrs by CLSI M27-A3 protocol based method; format: functional
# Pichia kudriavzevii = experiment: Antifungal activity against Candida krusei ATCC 6258 measured after 48 hrs by CLSI M27-A3 protocol based method; format: functional
# Candida albicans [17] = settings: ATCC 10231, 0.975 ug/ml; remark: listed apart in the source
# Candida albicans [18] = experiment: Antifungal activity against Candida albicans ATCC 64124 measured after 48 hrs by CLSI M27-A3 protocol based method; format: functional
# [19] = Hemolytic activity in mouse RBC at […] ug/ml after 1 hr relative to control; format: ADME, cell-based, Erythrocyte; settings: mouse red blood cells (erythrocytes), read-out: Activity
# Nakaseomyces glabratus [20] = experiment: Antifungal activity against Candida glabrata ATCC 2001 measured after 48 hrs by CLSI M27-A3 protocol based method; format: functional, CBS 138
# Candida albicans [21] = settings: ATCC 10231, 0.975 ug/ml; remark: listed apart in the source
# Candida albicans [22] = experiment: Antifungal activity against Candida albicans ATCC 10231 measured after 48 hrs in presence of 10% FBS by CLSI M27-A3 protocol based method; format: functional
# [23] = Hemolytic activity in mouse RBC at 1.95 ug/ml after 1 hr relative to control; format: ADME, cell-based, Erythrocyte; settings: mouse red blood cells (erythrocytes), at 1.95 µg/mL, read-out: Activity
# Aspergillus terreus = experiment: Antifungal activity against Aspergillus terreus ATCC MYA-3633 measured after 48 hrs by CLSI M38-A2 protocol based method; format: functional; settings: ATCC MYA-3633, 48 h
# [24] = Hemolytic activity in mouse RBC at 31.3 ug/ml after 1 hr relative to control; format: ADME, cell-based, Erythrocyte; settings: mouse red blood cells (erythrocytes), at 31.3 µg/mL, read-out: Activity
# Candida albicans [25] = experiment: Induction of membrane permeabilization in Candida albicans ATCC 10231 assessed as membrane disruption at 4 times MIC after 1 hr by propidium iodide staining based fluorescence microscopy; format: functional, organism-based
# Candida parapsilosis [26] = experiment: Antifungal activity against Candida parapsilosis isolate CP2 measured after 48 hrs by CLSI M27-A3 protocol based method; format: functional
# Candida parapsilosis [27] = experiment: Antifungal activity against Candida parapsilosis ATCC 22019 measured after 48 hrs in presence of 10% FBS by CLSI M27-A3 protocol based method; format: functional
# Candida albicans [28] = settings: ATCC 10231, 0.975 ug/ml; remark: listed apart in the source
# Candida parapsilosis [29] = experiment: Antifungal activity against Candida parapsilosis isolate CP1 measured after 48 hrs by CLSI M27-A3 protocol based method; format: functional
# BEAS-2B = experiment: Cytotoxicity against human BEAS2B cells up to 7.8 ug/ml after 24 hrs by resazurin based assay; format: cell-based
# Candida parapsilosis [30] = experiment: Antifungal activity against Candida parapsilosis ATCC 22019 measured after 48 hrs by CLSI M27-A3 protocol based method; format: functional
# Nakaseomyces glabratus [31] = experiment: Antifungal activity against Candida glabrata isolate CG3 measured after 48 hrs by CLSI M27-A3 protocol based method; format: functional
# Nakaseomyces glabratus [32] = experiment: Antifungal activity against Candida glabrata isolate CG2 measured after 48 hrs by CLSI M27-A3 protocol based method; format: functional
# [33] = Hemolytic activity in mouse RBC at 0.48 ug/ml after 1 hr relative to control; format: ADME, cell-based, Erythrocyte; settings: mouse red blood cells (erythrocytes), read-out: Activity
# A549 = experiment: Cytotoxicity against human A549 cells up to 7.8 ug/ml after 24 hrs by resazurin based assay; format: cell-based; settings: a549, 24 h
# Aspergillus nidulans [34] = experiment: Antifungal activity against Aspergillus nidulans ATCC 38163 measured after 48 hrs by CLSI M38-A2 protocol based method; format: functional; settings: ATCC 38163, 48 h
# Aspergillus nidulans [35] = experiment: Antifungal activity against Aspergillus nidulans ATCC 38163 measured after 48 hrs in presence of 10% FBS by CLSI M38-A2 protocol based method; format: functional; settings: ATCC 38163, 48 h
# Erythrocyte = experiment: as §1; format: ADME, cell-based; settings: erythrocyte, 1 h
# Candida albicans [36] = experiment: Fungistatic activity against Candida albicans ATCC 10231 at 4 times MIC incubated for 24 hrs by time kill assay; format: functional, organism-based
# Candida parapsilosis [37] = experiment: Fungistatic activity against Candida parapsilosis ATCC 22019 up to 4 times MIC incubated for 24 hrs by time kill assay; format: functional, organism-based
# Candida albicans [38] = experiment: Inhibition of Candida albicans ATCC 10231 ERG11 assessed as lanosterol composition of total sterols at 0.12 ug/ml incubated for 10 mins followed by saponification for 2 hrs by GC-MS method relative to control; design: scale not given: the % may be the effect or the level left
# Candida albicans [39] = experiment: Inhibition of Candida albicans ATCC 10231 ERG11 assessed as ergosterol composition of total sterols at 0.12 ug/ml incubated for 10 mins followed by saponification for 2 hrs by GC-MS method (reference value: 100%); design: scale not given: the % may be the effect or the level left
# Candida albicans [40] = experiment: Inhibition of Candida albicans ATCC 10231 ERG11 assessed as 14alphamethyl ergosta-8,24(28)-diene-3beta,6alpha-diol composition of total sterols at 0.12 ug/ml incubated for 10 mins followed by saponification for 2 hrs by GC-MS method relative to control; design: scale not given: the % may be the effect or the level left
# Candida albicans [41] = experiment: Inhibition of Candida albicans ATCC 10231 ERG11 assessed as eburicol composition of total sterols at 0.12 ug/ml incubated for 10 mins followed by saponification for 2 hrs by GC-MS method relative to control; design: scale not given: the % may be the effect or the level left
# [42] = Nakaseomyces glabratus, 48 h, read-out: MIC
# [43] = Lodderomyces parapsilosis, ATCC 22019, 48 h
compound,measurement,setting,value
CCCCCCCCCCCCCCNCC(O)(Cn1cncn1)c1ccc(F)cc1F (configuration not stated),MIC,"Candida albicans [1]; Candida albicans, ATCC MYA-1003, 48 h, read-out: MIC",69.5 µM
same,"viability at 24 h, 3.9 ug/ml",[2],> 50%
same,MIC,"Cryptococcus neoformans [3]; Cryptococcus neoformans, isolate CN3, 48 h, read-out: MIC",1.1 µM
same,Activity,Candida albicans [4],1.16%
same,"hemolysis at 1 h, 62.5 ug/ml",[5],77%
same,MIC,"Candida parapsilosis [6]; Lodderomyces parapsilosis, isolate CP3, 48 h",1.1 µM
same,MIC,Nakaseomyces glabratus [7]; [42],4.3 µM
same,MIC,"Candida albicans [8]; Candida albicans, ATCC 90819, 48 h, read-out: MIC",17.3 µM
same,MIC,"Candida albicans [9]; Candida albicans, ATCC MYA-1237, 48 h, read-out: MIC",> 69.5 µM
same,MIC,Cryptococcus neoformans [10],0.27 µM
same,MIC,Candida albicans [11],4.3 µM
same,MIC,"Cryptococcus neoformans [12]; Cryptococcus neoformans, isolate CN2, 48 h, read-out: MIC",0.53 µM
same,"hemolysis at 1 h, 3.9 ug/ml",[13],10%
same,MIC,Aspergillus flavus,> 69.5 µM
same,MIC,"Candida albicans [14]; Candida albicans, ATCC MYA-2310, 48 h, read-out: MIC",69.5 µM
same,"hemolysis at 1 h, 7.8 ug/ml",[15],17%
same,MIC,"Candida albicans [16]; Candida albicans, ATCC MYA-2876, 48 h",> 69.5 µM
same,MIC,"Pichia kudriavzevii; Pichia kudriavzevii, ATCC 6258, 48 h",8.7 µM
same,Activity,Candida albicans [17],36.4%
same,MIC,"Candida albicans [18]; Candida albicans, ATCC 64124, 48 h, read-out: MIC",> 69.5 µM
same,"hemolysis at 1 h, 0.975 ug/ml",[19],6%
same,"hemolysis at 1 h, 15.6 ug/ml",[19],29%
same,MIC,"Nakaseomyces glabratus [20]; Nakaseomyces glabratus, CBS 138, 48 h, read-out: MIC",2.2 to 4.3 µM
same,Activity,Candida albicans [21],15.6%
same,MIC,"Candida albicans [22]; Candida albicans, ATCC 10231, 48 h",7.8 µg/mL
same,"hemolysis at 1 h, 1.95 ug/ml",[23],3%
same,MIC,Aspergillus terreus,17.3 µM
same,"hemolysis at 1 h, 31.3 ug/ml",[24],< 50%
same,Activity,Candida albicans [25],inactive
same,MIC,"Candida parapsilosis [26]; Lodderomyces parapsilosis, isolate CP2, 48 h",2.2 µM
same,MIC,Candida parapsilosis [27]; [43],0.975 µg/mL
same,Activity,Candida albicans [28],8.33%
same,MIC,"Candida parapsilosis [29]; Lodderomyces parapsilosis, isolate CP1, 48 h",1.1 µM
same,Activity,BEAS-2B,Non-Toxic
same,MIC,Candida parapsilosis [30]; [43],1.1 µM
same,MIC,Nakaseomyces glabratus [31]; [42],8.7 µM
same,MIC,"Nakaseomyces glabratus [32]; Nakaseomyces glabratus, isolate CG2, 48 h, read-out: MIC",4.3 µM
same,"hemolysis at 1 h, 0.48 ug/ml",[33],2%
same,Activity,A549,Non-Toxic
same,MIC,Aspergillus nidulans [34],8.7 µM
same,MIC,Aspergillus nidulans [35],31.2 µg/mL
C[C@@H](c1ncncc1F)[C@](O)(Cn1cncn1)c1ccc(F)cc1F [VORICONAZOLE],MIC,Candida albicans [1],5.6 µM
same,MIC,Cryptococcus neoformans [3],0.35 µM
same,Activity,Erythrocyte,100%
same,MIC=<50,Candida parapsilosis [6],<0.06 µM
same,MIC,Nakaseomyces glabratus [7],2.76 µM
same,MIC,Candida albicans [8],5.6 µM
same,MIC,Candida albicans [9],22.3 µM
same,MIC,Cryptococcus neoformans [12],2.76 µM
same,"hemolysis at 1 h, 3.9 ug/ml",[13],7%
same,MIC,Candida albicans [14],2.8 µM
same,"hemolysis at 1 h, 7.8 ug/ml",[15],11%
same,MIC=<50,Candida albicans [16],5.6 µM
same,Activity,Candida albicans [36],Active
same,Activity,Candida parapsilosis [37],Active
same,MIC=<50,Pichia kudriavzevii,0.34 µM
same,MIC,Candida albicans [18],11.2 µM
same,Activity,Candida albicans [38],15.2%
same,"hemolysis at 1 h, 0.975 ug/ml",[19],10%
same,"hemolysis at 1 h, 15.6 ug/ml",[19],3%
same,Activity,Candida albicans [39],50.8%
same,MIC,Nakaseomyces glabratus [20],0.17 to 0.69 µM
same,MIC=<50,Candida albicans [22],0.48 µg/mL
same,"hemolysis at 1 h, 1.95 ug/ml",[23],6%
same,MIC,Aspergillus terreus,0.34 µM
same,Activity,Candida albicans [25],inactive
same,MIC=<50,Candida parapsilosis [26],<0.06 µM
same,MIC=<50,Candida parapsilosis [27],0.015 µg/mL
same,MIC=<50,Candida parapsilosis [29],<0.06 µM
same,MIC=<50,Candida parapsilosis [30],<0.06 µM
same,MIC,Nakaseomyces glabratus [31],>89.9 µM
same,MIC,Nakaseomyces glabratus [32],11.2 µM
same,"hemolysis at 1 h, 0.48 ug/ml",[33],9%
same,Activity,Candida albicans [40],9.86%
same,MIC,Aspergillus nidulans [34],0.34 µM
same,MIC,Aspergillus nidulans [35],0.12 µg/mL
same,Activity,Candida albicans [41],1.73%
